What was measured:
Assay type in all cases: functional
Macrophage [1] = experiment: Antiinflammatory activity in Escherichia coli O6:K2:H1-induced human M1 macrophage assessed as change in 15-HETE level at 1 uM preincubated for 10 mins followed by Escherichia coli O6:K2:H1-stimulation and measured after 180 mins by UPLC-MS/MS analysis relative to control
Macrophage [2] = experiment: Antiinflammatory activity in Escherichia coli O6:K2:H1-induced human M2 macrophage assessed as change in 5-HETE level at 10 uM preincubated for 10 mins followed by Escherichia coli O6:K2:H1-stimulation and measured after 180 mins by UPLC-MS/MS analysis relative to control
Macrophage [3] = experiment: Antiinflammatory activity in Escherichia coli O6:K2:H1-induced human M2 macrophage assessed as change in total LTB4 level at 1 uM preincubated for 10 mins followed by Escherichia coli O6:K2:H1-stimulation and measured after 180 mins by UPLC-MS/MS analysis relative to control
Macrophage [4] = experiment: Antiinflammatory activity in Escherichia coli O6:K2:H1-induced human M2 macrophage assessed as change in 15-HETE level at 10 uM preincubated for 10 mins followed by Escherichia coli O6:K2:H1-stimulation and measured after 180 mins by UPLC-MS/MS analysis relative to control
Macrophage [5] = experiment: Antiinflammatory activity in Escherichia coli O6:K2:H1-induced human M1 macrophage assessed as change in PGE2 level at 1 uM preincubated for 10 mins followed by Escherichia coli O6:K2:H1-stimulation and measured after 180 mins by UPLC-MS/MS analysis relative to control
Macrophage [6] = experiment: Antiinflammatory activity in Escherichia coli O6:K2:H1-induced human M2 macrophage assessed as change in PGE2 level at 10 uM preincubated for 10 mins followed by Escherichia coli O6:K2:H1-stimulation and measured after 180 mins by UPLC-MS/MS analysis relative to control
Macrophage [7] = experiment: Antiinflammatory activity in Escherichia coli O6:K2:H1-induced human M1 macrophage assessed as change in PGF2alpha level at 1 uM preincubated for 10 mins followed by Escherichia coli O6:K2:H1-stimulation and measured after 180 mins by UPLC-MS/MS analysis relative to control
Macrophage [8] = experiment: Antiinflammatory activity in Escherichia coli O6:K2:H1-induced human M2 macrophage assessed as change in 18-HEPE level at 10 uM preincubated for 10 mins followed by Escherichia coli O6:K2:H1-stimulation and measured after 180 mins by UPLC-MS/MS analysis relative to control
Macrophage [9] = experiment: Antiinflammatory activity in Escherichia coli O6:K2:H1-induced human M1 macrophage assessed as change in 4-HDHA level at 10 uM preincubated for 10 mins followed by Escherichia coli O6:K2:H1-stimulation and measured after 180 mins by UPLC-MS/MS analysis relative to control
Macrophage [10] = experiment: Antiinflammatory activity in Escherichia coli O6:K2:H1-induced human M1 macrophage assessed as change in 15-HEPE level at 10 uM preincubated for 10 mins followed by Escherichia coli O6:K2:H1-stimulation and measured after 180 mins by UPLC-MS/MS analysis relative to control
Macrophage [11] = experiment: Antiinflammatory activity in Escherichia coli O6:K2:H1-induced human M2 macrophage assessed as change in PGF2alpha level at 1 uM preincubated for 10 mins followed by Escherichia coli O6:K2:H1-stimulation and measured after 180 mins by UPLC-MS/MS analysis relative to control
Macrophage [12] = experiment: Antiinflammatory activity in Escherichia coli O6:K2:H1-induced human M1 macrophage assessed as change in 18-HEPE level at 1 uM preincubated for 10 mins followed by Escherichia coli O6:K2:H1-stimulation and measured after 180 mins by UPLC-MS/MS analysis relative to control
Macrophage [13] = experiment: Antiinflammatory activity in Escherichia coli O6:K2:H1-induced human M1 macrophage assessed as change in 17-HDHA level at 1 uM preincubated for 10 mins followed by Escherichia coli O6:K2:H1-stimulation and measured after 180 mins by UPLC-MS/MS analysis relative to control

Work on O=C(Cc1ccc(Oc2nc3ccccc3s2)cc1F)NCCc1ccc(F)cc1 yielded an Activity (Macrophage [1]) of 102%, an Activity (Macrophage [2]) of 44% and an Activity (Macrophage [3]) of 83%. It also gave an Activity (Macrophage [4]) of 123%, an Activity (Macrophage [5]) of 109% and an Activity (Macrophage [6]) of 51%. The Activity (Macrophage [7]) was 94%, the Activity (Macrophage [8]) was 96% and the Activity (Macrophage [9]) was 72%. For the same molecule, the Activity (Macrophage [10]) was 191%, the Activity (Macrophage [11]) was 63% and the Activity (Macrophage [12]) was 74%. The Activity (Macrophage [13]) was 97%.

Source: ChEMBL document CHEMBL4342480, “Design of Dual Inhibitors of Soluble Epoxide Hydrolase and LTA4 Hydrolase” (ACS Med Chem Lett, 2020)
